Earlier results on one molecule are cited in US20040024036A1, “Pharmaceutical composition for transdermal delivery of befloxatone” (priority 2000, published 2004).

Data set [1] deals with T1, MAO-A (Homo sapiens, UniProt P21397).
T1 sequence (P21397 1-527): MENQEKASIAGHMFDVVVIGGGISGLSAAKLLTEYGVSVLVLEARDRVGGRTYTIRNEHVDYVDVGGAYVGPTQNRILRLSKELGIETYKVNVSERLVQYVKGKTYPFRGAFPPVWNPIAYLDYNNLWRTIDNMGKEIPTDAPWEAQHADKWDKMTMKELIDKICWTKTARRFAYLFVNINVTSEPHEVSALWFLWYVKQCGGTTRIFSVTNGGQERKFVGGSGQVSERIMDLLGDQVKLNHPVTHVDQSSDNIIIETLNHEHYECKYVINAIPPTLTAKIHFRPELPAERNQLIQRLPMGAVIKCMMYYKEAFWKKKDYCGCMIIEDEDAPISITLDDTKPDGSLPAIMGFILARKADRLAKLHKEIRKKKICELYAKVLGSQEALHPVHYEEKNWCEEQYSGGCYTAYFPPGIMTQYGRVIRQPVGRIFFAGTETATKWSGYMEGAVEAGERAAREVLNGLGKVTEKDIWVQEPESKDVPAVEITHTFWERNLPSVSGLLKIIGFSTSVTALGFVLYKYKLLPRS
Particulars: reversible inhibitor.

Data set [2] has as its target T2, MAO-B (Homo sapiens, UniProt P27338).
T2 sequence (P27338 1-520): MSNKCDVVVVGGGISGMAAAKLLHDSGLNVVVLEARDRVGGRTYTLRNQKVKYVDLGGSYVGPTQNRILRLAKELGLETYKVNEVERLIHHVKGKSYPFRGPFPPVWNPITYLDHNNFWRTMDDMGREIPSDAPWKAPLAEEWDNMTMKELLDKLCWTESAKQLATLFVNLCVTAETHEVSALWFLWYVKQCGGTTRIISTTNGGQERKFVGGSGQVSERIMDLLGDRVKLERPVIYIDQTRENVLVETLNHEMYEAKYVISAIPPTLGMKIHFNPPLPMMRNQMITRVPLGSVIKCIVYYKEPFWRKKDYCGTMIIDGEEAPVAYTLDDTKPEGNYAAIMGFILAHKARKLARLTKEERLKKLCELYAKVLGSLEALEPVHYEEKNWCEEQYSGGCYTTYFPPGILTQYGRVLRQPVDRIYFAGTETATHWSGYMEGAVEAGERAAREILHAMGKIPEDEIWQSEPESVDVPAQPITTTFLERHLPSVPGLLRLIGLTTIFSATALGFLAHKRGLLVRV
To be noted: MAO-A versus MAO-B.

The test system of data set [3] is serotonin (5-HT) reuptake.
Data set [4] relates to noradrenalin (NA) reuptake.
In data set [5] the test system is dopamine (DA) reuptake.

With `COC[C@H]1CN(c2ccc(OCC[C@@H](O)C(F)(F)F)cc2)C(=O)O1` [befloxatone], the “affinity for the A isoform (MAO-A)” value in data set [1] is recorded as “very high affinity”. In data set [2], the “selectivity toward the B isoform (MAO-B)” value was “very good selectivity”. Also, the “effect on serotonin (5-HT) reuptake” value in data set [3] is reported as “does not affect”. In addition, in data set [4], the “effect on noradrenalin (NA) reuptake” value is recorded as “does not affect”. In data set [5], the “effect on dopamine (DA) reuptake” value is listed as “does not affect”.
